Reference: patent publication US4965194A, “Pyruvate oxidase and an analytical method using the same” (Toyo Boseki Kabushiki Kaisha, priority 1986, dated 1990)

Test system: pyruvate oxidase (EC 1.2.3.3) of Lactobacillus sp. TE6103 (FERM BP-1419)
Test: Km determination of the thermostable pyruvate oxidase (physicochemical characteristics of the enzyme)
Type: biochemical
Settings: purified enzyme from Lactobacillus sp. TE6103; activity assay at 37° C., pH 7.0, with thiamine pyrophosphate and FAD; read-out: Km for pyruvic acid
Description: The activity of the resulting pyruvate oxidase can be measured as follows:
First, from the mixture of the ingredients listed above, 2.5 ml is sampled and placed in a test tube, and 0.5 ml of a 0.3 M solution of potassium pyruvate is added thereto. The mixture is then heated at 37° C. for 5 minutes. To this, 0.05 ml of the enzyme solution is added, and the mixture gently stirred; then, the changes (ΔOD) in the optical density at 500 nm over 1 minute of the mixture at 37° C. are monitored in a spectrophotometer against water. Next, in place of the enzyme solution, 0.05 ml of a 50 mM potassium phosphate buffer (pH 7.0) is used, and the same steps as above are followed to measure the changes (ΔOD) in optical density over 1 minute; this is the blank test. Under these conditions, the enzyme activity of pyruvate oxidase that produces 1 μmol of hydrogen peroxide is taken to be one unit (U).
The physicochemical characteristics of the enzyme activity of this invention will be shown below.

For `CC(=O)C(=O)O` [pyruvic acid], the Km was ~400 µM.
